Results from ChEMBL document CHEMBL1909046, “DrugMatrix in vitro pharmacology data”.

Columns and labels:
[1] = molecular target: T1, Angiotensin-converting enzyme (Oryctolagus cuniculus, UniProt P12822); test: biochemical; assay type: tissue-based, Lung;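 note: enzymatic inhibition of angiotensin-converting enzyme measured with FAPGG as the substrate; in other assays of this panel Not Active means under 50% inhibition at 10 µM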
T1 sequence (P12822 whole entry): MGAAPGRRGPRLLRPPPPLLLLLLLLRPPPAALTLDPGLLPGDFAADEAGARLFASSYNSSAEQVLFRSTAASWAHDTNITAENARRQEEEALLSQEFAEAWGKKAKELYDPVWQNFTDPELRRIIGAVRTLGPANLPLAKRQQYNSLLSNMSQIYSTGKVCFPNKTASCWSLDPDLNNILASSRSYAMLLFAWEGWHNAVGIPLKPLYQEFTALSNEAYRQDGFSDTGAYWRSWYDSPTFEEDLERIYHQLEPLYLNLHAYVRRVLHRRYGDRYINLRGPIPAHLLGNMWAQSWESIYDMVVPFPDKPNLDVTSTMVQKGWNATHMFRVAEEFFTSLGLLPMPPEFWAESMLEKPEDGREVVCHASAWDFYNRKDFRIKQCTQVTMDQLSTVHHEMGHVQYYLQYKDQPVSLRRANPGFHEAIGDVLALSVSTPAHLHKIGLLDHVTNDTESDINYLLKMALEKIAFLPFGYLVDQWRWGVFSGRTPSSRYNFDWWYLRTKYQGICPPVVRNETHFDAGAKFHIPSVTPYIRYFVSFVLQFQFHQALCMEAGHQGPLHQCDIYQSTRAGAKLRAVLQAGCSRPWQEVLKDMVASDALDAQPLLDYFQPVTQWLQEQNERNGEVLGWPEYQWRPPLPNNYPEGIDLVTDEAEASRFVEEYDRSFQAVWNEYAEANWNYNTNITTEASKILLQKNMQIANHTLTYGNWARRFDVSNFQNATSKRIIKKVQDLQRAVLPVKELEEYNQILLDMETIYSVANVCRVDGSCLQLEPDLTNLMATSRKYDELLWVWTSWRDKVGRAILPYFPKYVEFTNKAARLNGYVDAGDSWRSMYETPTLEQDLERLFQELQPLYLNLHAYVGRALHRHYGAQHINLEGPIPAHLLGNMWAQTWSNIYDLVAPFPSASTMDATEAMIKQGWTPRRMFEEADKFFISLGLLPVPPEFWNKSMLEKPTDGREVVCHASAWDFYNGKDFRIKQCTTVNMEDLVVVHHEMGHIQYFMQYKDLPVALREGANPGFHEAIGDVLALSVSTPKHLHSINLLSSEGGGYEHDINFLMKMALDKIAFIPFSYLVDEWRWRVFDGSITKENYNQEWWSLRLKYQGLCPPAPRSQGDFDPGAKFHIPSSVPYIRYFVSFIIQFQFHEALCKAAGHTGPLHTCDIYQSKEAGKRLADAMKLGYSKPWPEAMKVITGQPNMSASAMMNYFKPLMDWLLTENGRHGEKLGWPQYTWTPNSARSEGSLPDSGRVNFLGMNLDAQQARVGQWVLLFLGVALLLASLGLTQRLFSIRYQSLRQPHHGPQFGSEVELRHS

Adenosine receptor A1 = molecular target: T2, Adenosine receptor A1 (Homo sapiens, UniProt P30542); assay type: cell membranes, CHO, Membrane; details: cho;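 note: radioligand binding assay at the adenosine A1 receptor, with DPCPX serving as the labelled ligand; in other assays of this panel Not Active means under 50% inhibition at 10 µM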
T2 sequence (P30542 whole entry): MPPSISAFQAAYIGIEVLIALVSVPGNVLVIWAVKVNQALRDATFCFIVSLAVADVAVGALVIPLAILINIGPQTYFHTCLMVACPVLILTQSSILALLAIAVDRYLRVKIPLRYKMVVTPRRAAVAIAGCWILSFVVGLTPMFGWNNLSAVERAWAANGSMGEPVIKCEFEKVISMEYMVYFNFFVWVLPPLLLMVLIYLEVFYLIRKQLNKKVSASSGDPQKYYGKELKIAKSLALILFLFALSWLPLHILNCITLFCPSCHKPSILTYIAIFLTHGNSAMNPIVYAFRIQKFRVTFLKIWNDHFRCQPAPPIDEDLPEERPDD

[2] = DRUGMATRIX: GABAA, Muscimol, Central radioligand binding (ligand: [3H] Muscimol); assay type: cell membranes, Rattus norvegicus, Wistar, Brain, Membrane; details: Not Active = under 50% inhibition at 10 µM
Calcitonin receptor = molecular target: T3, Calcitonin receptor (Homo sapiens, UniProt P30988); assay type: cell membranes, Membrane; details: t47d; note: in other assays of this panel Not Active means under 50% inhibition at 10 µM
T3 sequence (P30988 whole entry): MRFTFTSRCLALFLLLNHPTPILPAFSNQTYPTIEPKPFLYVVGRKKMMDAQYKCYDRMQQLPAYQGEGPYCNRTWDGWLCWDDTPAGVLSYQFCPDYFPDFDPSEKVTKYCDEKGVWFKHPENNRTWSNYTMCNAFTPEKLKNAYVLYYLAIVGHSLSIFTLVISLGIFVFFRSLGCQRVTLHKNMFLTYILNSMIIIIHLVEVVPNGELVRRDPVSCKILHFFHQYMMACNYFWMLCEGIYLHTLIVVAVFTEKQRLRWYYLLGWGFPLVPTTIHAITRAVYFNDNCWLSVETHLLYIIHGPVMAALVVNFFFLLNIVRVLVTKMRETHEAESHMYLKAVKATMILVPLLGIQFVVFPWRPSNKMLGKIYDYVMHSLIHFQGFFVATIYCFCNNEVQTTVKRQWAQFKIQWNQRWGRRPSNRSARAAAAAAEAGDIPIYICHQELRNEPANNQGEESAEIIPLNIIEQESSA

Endothelin-1 receptor = molecular target: T4, Endothelin-1 receptor (Homo sapiens, UniProt P25101); assay type: cell membranes, Membrane; details: cho-k1; note: in other assays of this panel Not Active means under 50% inhibition at 10 µM
T4 sequence (P25101 whole entry): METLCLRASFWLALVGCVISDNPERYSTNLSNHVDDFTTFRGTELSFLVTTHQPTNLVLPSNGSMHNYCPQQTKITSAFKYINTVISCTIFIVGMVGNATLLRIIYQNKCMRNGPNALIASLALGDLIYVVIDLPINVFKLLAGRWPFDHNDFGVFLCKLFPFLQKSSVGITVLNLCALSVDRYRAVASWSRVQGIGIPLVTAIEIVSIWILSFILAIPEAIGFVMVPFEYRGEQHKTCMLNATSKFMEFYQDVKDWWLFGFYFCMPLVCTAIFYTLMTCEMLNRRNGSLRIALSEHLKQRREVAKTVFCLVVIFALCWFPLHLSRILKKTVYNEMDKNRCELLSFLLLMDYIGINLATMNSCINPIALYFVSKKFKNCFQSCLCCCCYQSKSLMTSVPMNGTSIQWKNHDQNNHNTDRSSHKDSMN

O=C(O)c1cn(C2CC2)c2cc(N3CCNCC3)c(F)cc2c1=O [CIPROFLOXACIN]
Not Active: IC50 [1] | IC50 (Adenosine receptor A1) | IC50 [2] | Ki [2] | IC50 (Calcitonin receptor) | IC50 (Endothelin-1 receptor)

CN(C)CCCC1(c2ccc(F)cc2)OCc2cc(C#N)ccc21 (stereo not given) [CITALOPRAM]
Not Active: IC50 [1] | IC50 (Adenosine receptor A1) | IC50 [2] | Ki [2] | IC50 (Calcitonin receptor) | IC50 (Endothelin-1 receptor)

COC(=O)[C@H](c1ccccc1Cl)N1CCc2sccc2C1 [CLOPIDOGREL]
Not Active: IC50 [1] | IC50 (Adenosine receptor A1) | IC50 [2] | Ki [2] | IC50 (Calcitonin receptor) | IC50 (Endothelin-1 receptor)

C[C@]12CCC(=O)C=C1CC[C@@H]1[C@@H]2C(=O)C[C@@]2(C)[C@H]1CC[C@]2(O)C(=O)CO [CORTISONE]
Not Active: IC50 [1] | IC50 (Adenosine receptor A1) | IC50 [2] | Ki [2] | IC50 (Calcitonin receptor) | IC50 (Endothelin-1 receptor)

Cc1ccccc1N1CCN(CCc2nnc3n2CCCC3)CC1 [DAPIPRAZOLE]
Not Active: IC50 [1] | IC50 (Adenosine receptor A1) | IC50 [2] | Ki [2] | IC50 (Calcitonin receptor) | IC50 (Endothelin-1 receptor)

CC1=Nc2ccc(Cl)cc2S(=O)(=O)N1 [DIAZOXIDE]
Not Active: IC50 [1] | IC50 (Adenosine receptor A1) | IC50 [2] | Ki [2] | IC50 (Calcitonin receptor) | IC50 (Endothelin-1 receptor)

CC(=O)OCC(=O)[C@@]1(OC(C)=O)[C@@H](C)C[C@H]2[C@@H]3C[C@H](F)C4=CC(=O)C=C[C@]4(C)[C@@]3(F)[C@@H](O)C[C@@]21C [DIFLORASONE DIACETATE]
Not Active: IC50 [1] | IC50 (Adenosine receptor A1) | IC50 [2] | Ki [2] | IC50 (Calcitonin receptor) | IC50 (Endothelin-1 receptor)

COc1ccc([C@@H]2Sc3ccccc3N(CCN(C)C)C(=O)[C@@H]2OC(C)=O)cc1 [DILTIAZEM]
Not Active: IC50 [1] | IC50 (Adenosine receptor A1) | IC50 [2] | Ki [2] | IC50 (Calcitonin receptor) | IC50 (Endothelin-1 receptor)

CCc1ccc(C(=O)C(C)CN2CCCCC2)cc1 (stereo not given) [EPERISONE]
Not Active: IC50 [1] | IC50 (Adenosine receptor A1) | IC50 [2] | Ki [2] | IC50 (Calcitonin receptor) | IC50 (Endothelin-1 receptor)

C=C1CC[C@H](O)C/C1=C/C=C1\CCC[C@]2(C)[C@@H]([C@H](C)/C=C/[C@H](C)C(C)C)CC[C@@H]12 [ERGOCALCIFEROL]
Not Active: IC50 [1] | IC50 (Adenosine receptor A1) | IC50 [2] | Ki [2] | IC50 (Calcitonin receptor) | IC50 (Endothelin-1 receptor)
